Laboratory results: the supplement of paper PMC10307832

Key:
Assay in all cases: relative viability (nuclei count vs DMSO), 5 days (fraction); higher = more cells survive
IDH-C35 + Decitabine = compound: Cc1ccccc1C(C(=O)NC1CCCCC1)N(C(=O)Cn1ccnc1C)c1cccc(F)c1 [IDH-C35] + Nc1ncn([C@H]2C[C@H](O)[C@@H](CO)O2)c(=O)n1 [Decitabine] (partner 2 µM)
Procedure, shortened: (§1)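 Each reported value is a median over duplicate plates. It expresses relative viability: treated-well nuclei count divided by vehicle-well nuclei count. Lung cancer cell lines in 1536-well plates were dosed by pin tool a day after seeding, alone with one drug or with a fixed anchor-drug dose plus five library-drug doses (not always all listed) in √10 steps, and nuclei were counted after 5 days.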

[1] = compound: CC1=C(C(=NN1)C)CC2=C(C3=C(S2)N(C(=O)N(C3=O)C)CC(C)C)C(=O)N4C[C@@H](CO4)O + COc1cc2c(Oc3ccc(NC(=O)C4(C(=O)Nc5ccc(F)cc5)CC4)cc3F)ccnc2cc1OCCCN1CCOCC1 [Foretinib] (partner 0.25 µM)
Procedure, shortened: as §1

[2] = compound: CC1=C(C(=NN1)C)CC2=C(C3=C(S2)N(C(=O)N(C3=O)C)CC(C)C)C(=O)N4C[C@@H](CO4)O + Nc1ncn([C@H]2C[C@H](O)[C@@H](CO)O2)c(=O)n1 [Decitabine] (partner 2 µM)
Procedure, shortened: as §1

IDH-C35 + Navitoclax = compound: Cc1ccccc1C(C(=O)NC1CCCCC1)N(C(=O)Cn1ccnc1C)c1cccc(F)c1 [IDH-C35] + CC1(C)CCC(c2ccc(Cl)cc2)=C(CN2CCN(c3ccc(C(=O)NS(=O)(=O)c4ccc(N[C@H](CCN5CCOCC5)CSc5ccccc5)c(S(=O)(=O)C(F)(F)F)c4)cc3)CC2)C1 [Navitoclax] (partner 0.5 µM)
Procedure, shortened: as §1

Cell Line | relative viability (IDH-C35 + Decitabine; first compound 0.08 µM) | relative viability (IDH-C35 + Decitabine; first compound 0.253 µM) | relative viability (IDH-C35 + Decitabine; first compound 0.8 µM) | relative viability (IDH-C35 + Decitabine; first compound 2.53 µM) | relative viability (IDH-C35 + Decitabine; first compound 8 µM) | relative viability ([1]; first compound 0.0025 µM) | relative viability ([1]; first compound 0.007906 µM) | relative viability ([1]; first compound 0.025 µM) | relative viability ([1]; first compound 0.07906 µM) | relative viability ([1]; first compound 0.25 µM) | relative viability ([2]; first compound 0.0025 µM) | relative viability ([2]; first compound 0.007906 µM) | relative viability ([2]; first compound 0.025 µM) | relative viability ([2]; first compound 0.07906 µM) | relative viability ([2]; first compound 0.25 µM) | relative viability (IDH-C35 + Navitoclax; first compound 0.08 µM) | relative viability (IDH-C35 + Navitoclax; first compound 0.253 µM) | relative viability (IDH-C35 + Navitoclax; first compound 0.8 µM) | relative viability (IDH-C35 + Navitoclax; first compound 2.53 µM) | relative viability (IDH-C35 + Navitoclax; first compound 8 µM)
HCC-78 | 0.701 | 0.579 | 0.703 | 0.605 | 0.707 | 0.579 | 0.572 | 0.601 | 0.527 | 0.563 | 0.658 | 0.774 | 0.644 | 0.636 | 0.631 | 0.86 | 0.762 | 0.763 | 0.62 | 0.656
HCC-366 | 0.359 | 0.344 | 0.403 | 0.288 | 0.324 | 0.918 | 0.932 | 0.905 | 0.771 | 0.958 | 0.297 | 0.417 | 0.399 | 0.365 | 0.372 | 0.937 | 1.13 | 1.03 | 0.981 | 1.01
HCC-827 | 0.309 | 0.318 | 0.282 | 0.317 | 0.296 | 1.02 | 1.09 | 1.01 | 1.02 | 1.02 | 0.216 | 0.34 | 0.323 | 0.408 | 0.302 | 0.975 | 0.997 | 1.05 | 0.949 | 1.03
HOP-62 | 0.175 | 0.237 | 0.229 | 0.206 | 0.206 | 1.2 | 1.09 | 1.04 | 1.06 | 1.09 | 0.197 | 0.218 | 0.268 | 0.165 | 0.279 | 1.07 | 0.939 | 0.84 | 0.974 | 0.891
IA-LM | – | – | – | – | – | 1.25 | 1.01 | 1.2 | 1.25 | 1.14 | – | – | – | – | – | 0.711 | 0.838 | 0.798 | 0.742 | 0.707
LC-2-ad | 0.73 | 0.839 | 0.847 | 0.764 | 0.782 | 0.897 | 0.836 | 0.911 | 1.06 | 1.08 | 0.776 | 0.8 | 0.877 | 0.8 | 0.871 | 0.544 | 0.589 | 0.467 | 0.427 | 0.331
LCLC-97TM1 | 0.219 | 0.247 | 0.255 | – | 0.238 | 0.97 | 1.01 | 0.935 | 0.775 | 0.934 | 0.265 | 0.237 | 0.219 | 0.242 | 0.224 | 0.4 | 0.474 | 0.367 | – | 0.35
LCLC-103H | 0.81 | 0.676 | 0.726 | 0.744 | 0.834 | 0.89 | 0.672 | 0.817 | 0.84 | 1.02 | 0.753 | 0.746 | 0.766 | 0.644 | 0.701 | – | – | – | – | –
LK-2 | 0.327 | 0.368 | 0.205 | 0.395 | 0.289 | 1.04 | 1.12 | 0.981 | 0.928 | 1.16 | 0.261 | 0.397 | 0.268 | 0.237 | 0.273 | 0.88 | 0.834 | 0.866 | 0.911 | 0.903
NCI-H358 | 0.216 | 0.192 | 0.234 | 0.211 | 0.213 | 0.636 | 0.76 | 0.664 | 0.766 | 0.791 | 0.198 | 0.237 | 0.208 | 0.204 | 0.217 | – | – | – | – | –
NCI-H522 | 0.604 | 0.795 | 0.72 | 0.652 | 0.716 | – | – | – | – | – | 0.658 | 0.655 | 0.472 | 0.498 | 0.599 | – | – | – | – | –
NCI-H650 | 0.304 | 0.339 | 0.371 | – | 0.313 | 1.07 | 0.937 | 0.938 | 0.977 | 1.08 | 0.321 | 0.39 | 0.336 | 0.329 | 0.361 | – | – | – | – | –
NCI-H661 | 0.566 | 0.541 | 0.546 | 0.535 | 0.602 | 1 | 0.97 | 0.95 | 0.978 | 0.998 | 0.521 | 0.623 | 0.546 | 0.542 | 0.58 | – | – | – | – | –
NCI-H1299 | – | – | – | – | – | 1.06 | 1.11 | 1.06 | 1.1 | 1.09 | – | – | – | – | – | 1.02 | 1.08 | 1.02 | 1.05 | 1.03
NCI-H1563 | – | – | – | – | – | 0.933 | 0.969 | 0.967 | 0.933 | 0.936 | – | – | – | – | – | – | – | – | – | –
NCI-H1648 | – | 0.598 | 0.502 | 0.51 | 0.441 | – | – | – | – | – | 0.582 | 0.529 | 0.5 | 0.302 | 0.461 | – | – | – | – | –
NCI-H1703 | – | – | – | – | – | 0.38 | 0.391 | 0.386 | 0.329 | 0.362 | – | – | – | – | – | 1.05 | 1.29 | 1.49 | 1.11 | 0.897
NCI-H1792 | 0.45 | 0.48 | 0.476 | 0.539 | 0.533 | – | – | – | – | – | 0.483 | 0.489 | 0.408 | 0.451 | 0.517 | 0.637 | 0.593 | 0.619 | 0.621 | 0.646
NCI-H2228 | – | – | – | – | – | 0.828 | 1.04 | 0.734 | 0.83 | 1.08 | – | – | – | – | – | 0.915 | 1.18 | 1.29 | 0.875 | 0.706
NCI-H2342 | 0.719 | 0.745 | 0.757 | 0.714 | 0.744 | 1.14 | 1.04 | 0.893 | 0.998 | 1.01 | 0.74 | 0.784 | 0.81 | 0.693 | 0.799 | – | – | – | – | –
SW 900 | 0.467 | 0.396 | – | 0.472 | 0.438 | 1.01 | 1.06 | 0.671 | 0.834 | 1.06 | 0.449 | 0.405 | 0.547 | 0.469 | 0.412 | – | – | – | – | –
